Experimental data from US20210115104A1, “AMYLIN ANALOGUES” (Zealand Pharma A/S, priority 2015, published 2021).
*1 amine or outer side, *2 acyl side, *3 side chain or, on linkers, in order; H or OH if unused. Where a SMILES comes first, the peptide text is derived from it. Bridges are numbered along the chain shown (N, C = ends). [ ]: non-standard residue; d: D form. The star is where a group is joined. C20 diacid = O=C(O)CCCCCCCCCCCCCCCCCCC(=O)*; γGlu = O=C(O)[C@H](CCC(=O)[*:2])N[*:1]; Hyp = O=C(O)[C@@H]1C[C@@H](O)CN1; NMeI = CC[C@H](C)[C@H](NC)C(=O)O; Sar = CNCC(=O)O

Columns and labels:
[1] = target: T1, human amylin receptor 3 (hAMYR3), hCTR2 co-expressed with hRAMP3 (Homo sapiens, UniProt O60896+P30988); assay: hAMYR3 cAMP assay (AlphaScreen) in COS7 cells; type: cell-based; details: cAMP induction, COS7 cells expressing hAMYR3; Table 1; read-out: hAMYR3 EC50
T1 construct: expressed in transfected cells
T1 sequence (P30988 25-474): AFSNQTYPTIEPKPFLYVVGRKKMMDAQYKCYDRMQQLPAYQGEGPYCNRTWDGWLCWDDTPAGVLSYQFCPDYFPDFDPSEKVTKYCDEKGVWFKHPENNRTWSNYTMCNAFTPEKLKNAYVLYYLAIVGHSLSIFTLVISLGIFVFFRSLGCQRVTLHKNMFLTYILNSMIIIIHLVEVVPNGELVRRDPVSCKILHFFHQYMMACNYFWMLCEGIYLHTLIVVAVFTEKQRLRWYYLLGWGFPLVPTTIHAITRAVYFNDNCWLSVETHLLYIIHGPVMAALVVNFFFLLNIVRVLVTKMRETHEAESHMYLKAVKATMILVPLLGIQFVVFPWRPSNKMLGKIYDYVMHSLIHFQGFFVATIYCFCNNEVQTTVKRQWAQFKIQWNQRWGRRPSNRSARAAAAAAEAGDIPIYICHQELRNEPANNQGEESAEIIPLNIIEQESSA
T1 sequence (O60896 24-148 partner): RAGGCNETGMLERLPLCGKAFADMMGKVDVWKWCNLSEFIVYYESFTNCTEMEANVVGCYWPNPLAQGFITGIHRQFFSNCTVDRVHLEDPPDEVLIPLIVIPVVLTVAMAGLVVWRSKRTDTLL
Text: The cell line COS7, originating from African Green Monkey kidney fibroblast cells, was used for establishment of the stable cell lines described below. The COS7 cellular background was used due to it being RAMP naïve, and as such it provides the best available system for testing of the monomeric hCTR and different heterodimeric amylin receptor subtypes functionally generated by introduction of the individual RAMPs.
A cell line expressing the human amylin receptor 3 (hAMYR3) was generated in the COS7 cellular background as stable clones. In brief, hCTR2 (GI:4502547) and hRAMP3 (GI:118572586) were amplified by PCR using primers encoding terminal restriction sites for subcloning. The 5′-end primers additionally encoded a near Kozak consensus sequence to ensure efficient translation. The fidelity of the DNA encoding the receptor was confirmed by DNA sequencing. The PCR products encoding the receptor were subcloned into a proprietary tri-cistronic mammalian expression vector with RAMP3, hCTR2 and neomycin (G418) resistance marker. The mammalian expression vector encoding the receptor was transfected into COS7 cells by a standard liposome transfection method. 48 hours post-transfection, cells were seeded for limited dilution cloning and selected with 1 mg/ml G418 in the culture medium. After 3 weeks, surviving colonies of hAMY3R-expressing cells were picked, propagated and tested in the amylin efficacy assay as described in Example 3 below. The functional generation of the amylin receptor phenotype was verified in the efficacy assay by a left-shifted efficacy response to amylin relative to monomeric calcitonin receptor, and one hAMYR3-expressing clone was chosen for compound profiling.
In vitro activity of test peptides at the hCTR2 and hAMYR3 receptors was assessed by measuring the induction of cAMP following stimulation of the receptor using the AlphaScreen® cAMP Assay kit from Perkin-Elmer.
Briefly, COS7 cells expressing hCTR2 (see Example 2, above) were seeded at 30-40,000 cells per well in 96-well microtiter plates coated with 0.01% poly-L-lysine, and grown for 1 day in culture in 100 μl growth medium [DMEM, 10% FCS, Penicillin (100 IU/ml), Streptomycin (100 μg/ml)]. On the day of analysis, growth medium was removed and the cells were washed once with 200 μl Tyrode buffer [Tyrode's Salts (9.6 g/I), 10 mM HEPES, pH 7.4]. Cells were incubated in 100 μl Tyrode buffer containing increasing concentrations of test peptides, 100 µM IBMX and 0.1% casein for 15 min at 37° C. The reaction was stopped by carefully decanting off the compound/buffer medium and replacing it with lysis/detection buffer (80 μl 0.1% w/v BSA, 5 mM HEPES, 0.3% v/v Tween-20 in deionized water). After incubation at room temperature for 10 min., the cAMP content of the resulting cell lysate was estimated according to the AlphaScreen® cAMP Assay manufacturer's instructions. EC50 values were estimated by computer-aided curve fitting using the 4-parameter logistic (4PL) non-linear model.

[2] = target: T2, human calcitonin receptor (hCTR2) (Homo sapiens, UniProt P30988); assay: hCTR2 cAMP assay (AlphaScreen) in COS7 cells; type: cell-based; details: cAMP induction, COS7 cells expressing hCTR2; Table 1; read-out: hCTR2 EC50
T2 construct: expressed in transfected cells
T2 sequence (P30988 25-474): T1 sequence (P30988 25-474)
In short: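 Stable hCTR2 clone in RAMP-naïve COS7 cells stimulated 15 min at 37 °C with increasing peptide concentrations in Tyrode buffer pH 7.4 containing IBMX and 0.1% casein. cAMP in lysates measured by AlphaScreen; EC50 from 4-parameter logistic fit.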

[3] = Assessment of chemical stability (RP-HPLC normalized purity); type: physicochemical; details: 7 days, 40° C., Table 1
In short: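 Peptides at 0.2 mg/ml in water adjusted to pH 4, 6, 7.5 or 9, incubated at 40° C for 7 days. Main-peak area-% by RP-HPLC (C8 ammonium formate or C18 TFA gradient, UV 220 nm), normalized to T=0 as 100.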

[4] = Assessment of physical stability (Thioflavin T fibrillation); type: physicochemical; set-up: key: FND = fibrillation not detected; FD = fibrillation detected; details: 1 mg/ml, 40° C., ThT
In short: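 1 mg/ml peptide with 40 μM ThT in 50 mM phosphate pH 7.0, 50 mM histidine pH 7.0 or 50 mM acetate pH 4.0, in triplicate. Fluorescence read every 10 min after 300 s agitation over 96 h at 40 °C. Lag-time (h) is the intersection of linear fits to stable and growth phases.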

Compound: CC[C@H](C)[C@@H](C(=O)N[C@@H](CC(C)C)C(=O)N[C@@H](CO)C(=O)N[C@@H](CO)C(=O)N[C@H](C(=O)N[C@@H](CCC(=O)O)C(=O)N[C@H](C(=O)NCC(=O)N[C@@H](CO)C(=O)N[C@@H](CCC(=O)O)C(=O)N[C@H](C(=O)N1CCC[C@H]1C(N)=O)[C@@H](C)O)C(C)C)[C@@H](C)O)N(C)C(=O)[C@H](C)NC(=O)CN(C)C(=O)[C@H](Cc1ccccc1)NC(=O)[C@H](CO)NC(=O)[C@H](CO)NC(=O)[C@H](CCCNC(=N)N)NC(=O)[C@@H](NC(=O)[C@H](CC(C)C)NC(=O)[C@H](Cc1ccccc1)NC(=O)[C@H](Cc1c[nH]cn1)NC(=O)[C@H](C)NC(=O)[C@H](CC(C)C)NC(=O)[C@H](CCCNC(=N)N)NC(=O)[C@H](CCC(N)=O)NC(=O)[C@@H](NC(=O)[C@H](C)NC(=O)[C@@H]1CSSC[C@H](NC(=O)[C@H](CCCNC(=N)N)NC(=O)CC[C@H](NC(=O)CCCCCCCCCCCCCCCCCCC(=O)O)C(=O)O)C(=O)N[C@@H](CC(N)=O)C(=O)N[C@@H]([C@@H](C)O)C(=O)N[C@@H](C)C(=O)N[C@@H]([C@@H](C)O)C(=O)N1)[C@@H](C)O)C(C)C [Compound 24, [19CD]-isoGlu-R-C( )-NTAT-C( )-ATQRLAHFLVRSSF-Gly(Me)-A-Ile(Me)-LSSTEVGSETP-NH2] ({C20 diacid-γGlu}-RCNTATCATQRLAHFLVRSSF[Sar]A[NMeI]LSSTEVGSETP-NH2; disulfide 2-7)
- EC50 [1]: 190 pM
- EC50 [2]: 85 pM

Compound: CC[C@H](C)[C@@H](C(=O)N[C@@H](CC(C)C)C(=O)N[C@@H](CO)C(=O)N[C@@H](CO)C(=O)N[C@H](C(=O)N[C@@H](CCC(=O)O)C(=O)N[C@H](C(=O)NCC(=O)N[C@@H](CO)C(=O)N[C@@H](Cc1ccccc1)C(=O)N[C@H](C(=O)N1C[C@H](O)C[C@H]1C(N)=O)[C@@H](C)O)C(C)C)[C@@H](C)O)N(C)C(=O)[C@H](C)NC(=O)CN(C)C(=O)[C@H](Cc1ccccc1)NC(=O)[C@H](CO)NC(=O)[C@H](CO)NC(=O)[C@H](CCCNC(=N)N)NC(=O)[C@H](CC(N)=O)NC(=O)[C@H](CC(C)C)NC(=O)[C@H](Cc1ccccc1)NC(=O)[C@H](Cc1c[nH]cn1)NC(=O)[C@H](C)NC(=O)[C@H](CC(C)C)NC(=O)[C@H](CCCNC(=N)N)NC(=O)[C@H](CCC(=O)O)NC(=O)[C@@H](NC(=O)[C@H](C)NC(=O)[C@@H]1CSSC[C@H](NC(=O)[C@H](CCCNC(=N)N)NC(=O)CC[C@H](NC(=O)CCCCCCCCCCCCCCCCCCC(=O)O)C(=O)O)C(=O)NCC(=O)N[C@@H]([C@@H](C)O)C(=O)N[C@@H](C)C(=O)N[C@@H]([C@@H](C)O)C(=O)N1)[C@@H](C)O [Compound 33, [19CD]-isoGlu-R-C( )-GTAT-C( )-ATERLAHFLNRSSF-Gly(Me)-A-Ile(Me)-LSSTEVGSFT-Hyp-NH2] ({C20 diacid-γGlu}-RCGTATCATERLAHFLNRSSF[Sar]A[NMeI]LSSTEVGSFT[Hyp]-NH2; disulfide 2-7)
- EC50 [1]: 150 pM
- EC50 [2]: 110 pM

Compound: CC[C@H](C)[C@@H](C(=O)N[C@@H](CC(C)C)C(=O)N[C@@H](CO)C(=O)N[C@@H](CO)C(=O)N[C@H](C(=O)N[C@@H](CCC(=O)O)C(=O)N[C@H](C(=O)NCC(=O)N[C@@H](CO)C(=O)N[C@@H](CO)C(=O)N[C@H](C(=O)N1CCC[C@H]1C(N)=O)[C@@H](C)O)C(C)C)[C@@H](C)O)N(C)C(=O)[C@H](C)NC(=O)CN(C)C(=O)[C@H](Cc1ccccc1)NC(=O)[C@H](CO)NC(=O)[C@H](CO)NC(=O)[C@H](CCCNC(=N)N)NC(=O)[C@H](Cc1c[nH]cn1)NC(=O)[C@H](CC(C)C)NC(=O)[C@H](Cc1ccccc1)NC(=O)[C@H](Cc1c[nH]cn1)NC(=O)[C@H](C)NC(=O)[C@H](CC(C)C)NC(=O)[C@H](CCCNC(=N)N)NC(=O)[C@H](CCC(=O)O)NC(=O)[C@@H](NC(=O)[C@H](C)NC(=O)[C@@H]1CSSC[C@H](NC(=O)[C@H](CCCNC(=N)N)NC(=O)CC[C@H](NC(=O)CCCCCCCCCCCCCCCCCCC(=O)O)C(=O)O)C(=O)NCC(=O)N[C@@H]([C@@H](C)O)C(=O)N[C@@H](C)C(=O)N[C@@H]([C@@H](C)O)C(=O)N1)[C@@H](C)O [Compound 37, [19CD]-isoGlu-R-C( )-GTAT-C( )-ATERLAHFLHRSSF-Gly(Me)-A-Ile(Me)-LSSTEVGSSTP-NH2] ({C20 diacid-γGlu}-RCGTATCATERLAHFLHRSSF[Sar]A[NMeI]LSSTEVGSSTP-NH2; disulfide 2-7)
- EC50 [1]: 70 pM
- EC50 [2]: 40 pM

Compound: CC[C@H](C)[C@@H](C(=O)N[C@@H](CC(C)C)C(=O)N[C@@H](CO)C(=O)N[C@@H](CO)C(=O)N[C@H](C(=O)N[C@@H](CCC(=O)O)C(=O)N[C@H](C(=O)NCC(=O)N[C@@H](CO)C(=O)N[C@H](C(=O)N[C@H](C(=O)N1C[C@H](O)C[C@H]1C(N)=O)[C@@H](C)O)[C@@H](C)O)C(C)C)[C@@H](C)O)N(C)C(=O)[C@H](C)NC(=O)CN(C)C(=O)[C@H](Cc1ccccc1)NC(=O)[C@H](CO)NC(=O)[C@H](CO)NC(=O)[C@H](CCCNC(=N)N)NC(=O)[C@@H](NC(=O)[C@H](CC(C)C)NC(=O)[C@H](Cc1ccccc1)NC(=O)[C@H](Cc1c[nH]cn1)NC(=O)[C@H](C)NC(=O)[C@H](CC(C)C)NC(=O)[C@H](CCCNC(=N)N)NC(=O)[C@H](CCC(=O)O)NC(=O)[C@@H](NC(=O)[C@H](C)NC(=O)[C@@H]1CSSC[C@H](NC(=O)[C@H](CCCNC(=N)N)NC(=O)CC[C@H](NC(=O)CCCCCCCCCCCCCCCCCCC(=O)O)C(=O)O)C(=O)NCC(=O)N[C@@H]([C@@H](C)O)C(=O)N[C@@H](C)C(=O)N[C@@H]([C@@H](C)O)C(=O)N1)[C@@H](C)O)[C@@H](C)O [Compound 48, [19CD]-isoGlu-R-C( )-GTAT-C( )-ATERLAHFLTRSSF-Gly(Me)-A-Ile(Me)-LSSTEVGSTT-Hyp-NH2] ({C20 diacid-γGlu}-RCGTATCATERLAHFLTRSSF[Sar]A[NMeI]LSSTEVGSTT[Hyp]-NH2; disulfide 2-7)
- Normalized purity after 7 days, 40° C., pH 4 ([3]; pH 4, 0.2 mg/ml): A (A = >90%)
- Normalized purity after 7 days, 40° C., pH 6 ([3]; pH 6, 0.2 mg/ml): A (A = >90%)
- Normalized purity after 7 days, 40° C., pH 7.5 ([3]; pH 7.5, 0.2 mg/ml): A (A = >90%)
- Normalized purity after 7 days, 40° C., pH 9 ([3]; pH 9, 0.2 mg/ml): A (A = >90%)
- EC50 [1]: 260 pM
- Fibrillation pH 4.0 (Ac) ([4]; 50 mM acetate buffer pH 4.0, 96 hours): FND
- Fibrillation pH 7.0 (His) ([4]; 50 mM histidine buffer pH 7.0, 96 hours): FND
- Fibrillation pH 7.0 (Phos.) ([4]; 50 mM phosphate buffer pH 7.0, 96 hours): FND
